# Results published in patent US20240261274A1, “TREATMENT OF MYC-DRIVEN CANCERS WITH GSPT1 DEGRADERS” (MONTE ROSA THERAPEUTICS, INC., priority 2021, published 2024).
# Assays:
# [1] = test system: Myc target genes; experiment: RNAseq ssGSEA of Myc target genes in NCI-H1155 and NCI-H2023; format: cell-based; details: high N-Myc expressing cells, 0.1 μM and 1 μM
# Procedure: A High N-Myc expressing NSCLC cell lines ([…]) and a low N-Myc expressing NSCLC cell lines (NCI-H2023) were treated with Compound 345 in culture. Cells were treated with increasing concentrations of the compound (0.0; 0.03; 0.3; 3 μM), cells were withdrawn from the culture at time points of 0, 2, and 6 hours, lysates were prepared, SDS-PAGE and immunoblotting was performed, and transfer membranes were probed for GSPT1, N-Myc, and Tubulin as a loading control (N-Myc was not probed in the NCI-2023 experiment). […] For the same cell lines, RNAseq followed by single sample gene set enrichment analysis (ssGSEA) was performed at six hours and 24 hours after treatment with Compound 345. […]
# Transcriptomics experiment in NCI-H1155 and NCI-H2023 NSCLC lines: NCI-H1155 and NCI-H2023 were typically seeded in a 6 well plate (0.5×10^6 NCI-H1155 cells/mL; 0.3×10^6 NCI-H2023 cells/mL; 2 ml/well) and incubated overnight. […] Total RNA yields and quality were measured using the DeNovix DS-11 Spectrophotometer. […] Library yields were measured using a QuBit 4 fluorometer ([…], Q33238) and sizes were measured using a Tapestation 4150 (Agilent, G2992AA) and screentape (Agilent, 5067-5562). […] The modulation of Myctarget gene expression upon treatment with MRT-2359 was analyzed in RNAseq profiles of both Myc-driven (NCI-Hi 155) and non-Mycdriven (NCI-H2023) cell lines. […]
# [2] = test system: MM1 S multiple myeloma cell line derived xenograft; experiment: MM1 S multiple myeloma CDX efficacy study; format: in vivo, immunodeficient mice; details: oral daily 1, 3 and 10 mg/kg
# Procedure: Cell line derived xenograft (CDX) models were produced for the MM1 S multiple myeloma (MM) cell line in immunodeficient mice. Oral dosing of Compound 345 was performed daily at doses of 1 mg/kg, 3 mg/kg, and 10 mg/kg as well as lenalidomide at 50 mg/kg and a no-drug vehicle control. Tumor volumes were measured (mm^3) at regular intervals over the course of 20 to 50 days depending on the animal.
# In vivo efficacy study: NCI-H1155, MM1 S, WSU-DLCL2, DOHH-2 cells were maintained in vitro in individual medium and conditions as recommended by the providers and incubated at 37° C. in an atmosphere of 5% CO2 in air. 0.5 million (NCI-H1155), 10 million (MM1S) or 5 million (WSU-DLCL2 and DOHH-2) cells were resuspended in typically 0.1-0.2 mL of PBS with Matrigel (50:50) and were inoculated into 6-8 weeks old BALB/c nude female (NCI-H115, WSU-DLCL2), NOD/SCID (MM1S) or CB-17SCID (DOHH-2) mice and allowed to grow to 150-200 mm3 in size. Mice were dosed orally (PO) and daily (QD) with either vehicle or Compound 345 typically at 1.0 mg/kg, 3.0 mg/kg and 10 mg/kg. […] Tumor volumes were measured at least twice weekly during the treatment period using a caliper and the volume was expressed in mm3 using the formula: V=0.5 a×b2 where a and b were the long and short diameters of the tumor, respectively. […] Data are expressed as the mean±SEM. All data was analyzed using GraphPad Prism 8.1.2 (GraphPad).
smiles,measurement,setting,value
"O=C1CCC(N2Cc3ccc(COC(=O)Nc4cc(OC(F)(F)F)ccc4F)cc3C2=O)C(=O)N1 (stereo not drawn) [Compound 345, (2-(2,6-dioxopiperidin-3-yl)-3-oxoisoindolin-5-yl)methyl(2-fluoro-5-(trifluoromethoxy)phenyl)carbamate]","ssGSEA score, Myc gene set",[1]; 24 hours,significant downregulation of the Myc gene set
same,"ssGSEA score, Myc gene set",[1]; six hours,modest down regulation of the Myc gene set
same,tumor volume,[2],anti-tumor activity
